Results on 1 substance are retold here after patent US20090142766A1, “METHODS FOR MEASURING THE METABOLISM OF CNS DERIVED BIOMOLECULES IN VIVO” (Washington University in St. Louis, priority 2007, published 2009).

For data set [1] the following is noted: cited from earlier work.
A short description of data set [2]: Aβ clearance in cortex of APPswe/PS1deltaE9 double transgenic mice. Type of data set: in vivo. To be noted: cortex, 3, 6 and 18 hr after ^13C6-leucine 200 μg/g i.p. The procedure: To measure the brain Aβ clearance rate in mice, the method developed to assess ApoE clearance described above in Example 4 was performed in APPswe/PS1deltaE9 double transgenic mice (line #85; Jackson Labs, Bar Harbor, Me.). After a bolus intraperitioneal injection of ^13C6-leucine (200 μg/g), cortical brain tissue was harvested at 3, 6, and 18 hr post-injection (n=3) and lysed (lysis buffer, 1% Triton with PBS). Aβ was immunoprecipitated with an Aβ monoclonal antibody (HJ5.2, directed to Aβ 13-28) and then analyzed by nano-LC-MS/MS as described above. […] The clearance rate of soluble Aβ from cortex of transgenic mice was very similar with that of Aβ from human CSF as described by Bateman et al. 2006, supra.

The nature of data set [3]: Aβ fractional synthesis and clearance rate in CSF (immunoprecipitation-MS/MS after ^13C6-leucine labeling). Conditions: 6 healthy young participants. Type of data set: in vivo, human. The source says:
Protein production and clearance are important parameters that are tightly regulated and reflect normal physiology as well as disease states. Previous studies of protein metabolism in humans have focused on whole body or peripheral body proteins, but not on proteins produced in the central nervous system (CNS). No methods were previously available to quantify protein production or clearance rates in the CNS of humans. Such a method would be valuable to assess not only Aβ production or clearance rates in humans but also the metabolism of a variety other proteins relevant to diseases of the CNS. In order to address critical questions about underlying AD pathogenesis and Aβ metabolism, a method for quantifying Aβ fractional synthesis rate (FSR) and fractional clearance rate (FCR) in vivo in the CNS of humans was developed.
For each sample of CSF collected, the ratio of labeled to unlabeled Aβ was determined by immunoprecipitation-MS/MS, as described above. […]
The fractional synthesis rate (FSR) was calculated using the standard formula, presented below: […]
The fractional clearance rate (FCR) was calculated by fitting the slope of the natural logarithm of the clearance portion of the labeled Aβ curve, according to the following formula: […]

As to “Aβ: endogenous amyloid-beta peptide (SEQ ID NO:1) produced in the CNS from amyloid precursor protein”, in data set [1], the “t1/2 in brain interstitial fluid” value is 1 to 2 h. In data set [2], the “fractional clearance rate (FCR) of soluble cortical Aβ” value was found to be 7.62±1.25 % per hour. Besides, the “average fractional clearance rate (FCR)” value in data set [3] (24 to 36 hours) amounted to 8.3 %/hr. Further, the “average fractional synthesis rate (FSR)” value in data set [3] (slope 6 to 15 hours) is 7.6 %/hr.
